Laboratory results taken from US4340602A, “Compositions inhibiting estrogen sulfotransferase activity” (Wayne State University, priority 1978, dated 1982).
Where “and” joins values, the source holds several entries; their conditions need not be identical. Equal entries are not always repeated. Where two headings read alike, the source gives them in different places.

Legend:
[1] = system: uteri obtained from fertilized pigs; settings: average, uteri undergoing normal estrous cycle, regardless of phase; 0.003 µM; cited from earlier work
human endometrium = assay: Oxidation and sulfurylation of tritiated E2 by human endometrial curettings; format: in vitro ADME; settings: 0.003 µM
Protocol: (§1) Radioisotopes. [6,7-^3 H]E2 and [2,4,6,7-^3 H]E2 were obtained from New England Nuclear Corp., Boston, Mass., and purified on ITLC-SA (Gelman Instrument Co.) with CHCl3 :CH3 OH (97:3) as the developing solvent. Na2^35 SO4 was obtained from New England Nuclear Corp. and used directly from the bottle.
(§2) Human endometria. Endometrial specimens (60-1500 mg) were gathered from the operating room at the time of surgery and placed in 0.9% saline solution on ice. Most patients (22) were young women undergoing tubal ligations for the purpose of sterilization, two patients were having IUD's removed and eight patients (hysterectomies and laparoscopies) had normal endometria upon histological examination. All had had at least one pregnancy, had no endocrine problems, were cycling normally and were not taking any drugs, except for two patients on Librium® and two on Aldoril®. Ages ranged from 23 to 48 years, the average being 31±5 years.
(§3) Metabolism. Amounts varying from 55 to 400 mg of endometrium were incubated in 2.5 ml of modified bicarbonate buffer with 10 μl of [6,7-^3 H]E2 (3×10^-9 M) and 100 μl of Na2^35 SO4 (1×10^-4 M). The remainder of the procedure was the same as described for gilt uterus in Example 2

[2] = as above; format: in vitro ADME; settings: human, endometrium, Table IV, 2 h, 3×10^-9 M E2
Protocol: as §1, §2, §3

[3] = target: T1, Bovine Adrenal Estrogen Sulfotransferase (Bos taurus, UniProt P19217); assay: Inhibition of bovine adrenal estrogen sulfotransferase (estrone sulfurylation); format: biochemical
T1 construct: The enzyme was isolated from the bovine adrenals; from tissue; host or cells: bovine adrenals; purified by ammonium sulfate fractionation and chromatography on DEAE-cellulose or DEAE-Sephadex A-50
T1 sequence (P19217 1-295): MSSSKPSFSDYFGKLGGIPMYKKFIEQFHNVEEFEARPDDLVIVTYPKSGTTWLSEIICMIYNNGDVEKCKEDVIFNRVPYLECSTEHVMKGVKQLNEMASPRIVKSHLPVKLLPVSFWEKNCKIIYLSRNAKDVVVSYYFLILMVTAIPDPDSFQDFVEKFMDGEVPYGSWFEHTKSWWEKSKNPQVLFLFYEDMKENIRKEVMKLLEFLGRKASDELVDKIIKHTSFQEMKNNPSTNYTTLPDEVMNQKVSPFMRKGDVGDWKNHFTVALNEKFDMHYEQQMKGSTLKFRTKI
Protocol: Materials are evaluated for activity as estrogen sulfotransferase inhibitors by the method of Rozhin et al, Journal of Biological Chemistry, 252:7214-7220 (October 25, 1977), herein incorporated by reference.
Isolation of Estrogen Sulfotransferase (EC 2.8.2.4). The enzyme was isolated from the bovine adrenals and purified by ammonium sulfate fractionation and column chromatography on DEAE-cellulose or DEAE-SephadexA-50 [Rozhin et al (1974)].
Standard Enzyme Assay. The incubation mixtures contained the following in a total volume of 0.2 ml: 0.4 mM P-Ado-PS; 2 to 23 μM estrone (3-hydroxy-1,3,5(10)-estratriene-17-one), 5×10^5 dpm of [6,7-^3 H]estrone; 5 mM magnesium acetate; 0.19 M Tris/HCl buffer (pH 8.1 at 37°); 5 ug of the enzyme; and 25 μM dithiothreitol. After a 10-min incubation (in the presence of a constant amount of inhibitor and a variable amount of estrone), the boiled mixtures were supplemented with 5 μg of aqueous estrone sulfate. The remaining [^3 H]estrone was extracted three times with 0.3 ml of ethyl ether. The residual ether was removed and the volume adjusted to 0.5 ml with methanol. A sample (25 μl) was applied, together with 10 μg of methanolic estrone sulfate marker, to type SG chromatography media (Gelman Instrument Co., Ann Arbor, Mich.), and developed with chloroform/acetone/acetic acid (110:35:6). After drying the sheet, samples were visualized by spraying with methylene blue (25 mg in 100 ml of 0.05 N H2 SO4), punched out with a cork borer, and counted in 10 ml of dioxane counting liquid. A blank employing a boiled enzyme sample was incubated and the recorded counts were substracted from each determination. The total corrected counts, representing steroid sulfate ester, were converted to nanomoles utilizing the specific activity of [^3 H]estrone. An enzyme unit was defined as that quantity of enzyme which synthesized 1 nmol of estrone sulfate in 1 min under chosen conditions. […] When nonsubstrate steroids were used as the inhibitors, the procedure for the enzyme assay was as described earlier [Rozhin et al (1974)], utilizing 5 μg of enzyme, P-Ado-[^35 S]PS, and unlabeled estrone.
Data Processing. The initial velocity analysis was carried out keeping the concentration of P-Ado-PS at saturation level, varying the estrone concentration and keeping the concentration of the inhibitor at a fixed level. Preliminary plots of the data were made in the double reciprocal form (l/v versus l/[S]), and in the form of replots of slopes (and intercepts) versus inhibitor concentration. On the basis of these plots, the proper inhibition pattern was chosen for each experiment and the data points were fitted to the appropriate equation.
Linear competitive inhibition: [formula]
Hyperbolic competitive inhibition: [formula]
Slope-parabolic non-competitive inhibition: [formula]
All calculations were performed using Cleland's Fortran programs (Adv. Enzymol., 29:1-32). The programs gave the values of Km, Vmax, and inhibition constants.
Fractional Inhibition. From kinetic experiments, Ki was calculated as described above under "Data Processing" after making replots of slopes (and/or intercepts) versus inhibitor concentration. […] Substituting v and vi from the corresponding rate equations in the absence of (v=(Vmax [S])/(Km +[S])) and presence of a (competitive) inhibition (Equation 1), the following relationship for FI is obtained: [formula] After substituting [S], Km, and [I] (see above), the equation for the fractional (competitive) inhibition simplifies to: [formula] and the mathematical relationship between FI and Ki of competitive inhibitors is represented by the continuous curve in FIG. 2 in Rozhin et al., J. Biol. Chem., 252, 7214-7220, 1977. The dashed line represents the relationship between FI and the Ki of pure noncompetitive inhibition derived mathematically in an analogous manner and expressed as [formula] Since [I]=22.2 μM, [formula]

- Percent of tritiated E2 oxidized to estrone (E1 + E1 sulfate), secretory (human endometrium; Table IV, secretory day 24, 60, 120, 300 mg tissue by row, 2 h, 3×10^-9 M E2, listed as E2, 120 min): 82%
- oxidation of labeled E2 to E1 plus E1 sulfate, days 14 and 15 (human endometrium; same three endometrial curettings, days 14 and 15, listed as E2, 0.003 µM): 70% and 75% and 93%
- metabolised at 2 h, 0.003 µM ([2]; secretory day 24, 60, 120, 300 mg tissue by row, read-out: Percent of tritiated E2 oxidized to estrone (E1 + E1 sulfate), secretory): 78%
- Ki ([3]; inhibitors 3 to 6, 12 and 16, from kinetic experiments, read-out: Ki (Table I), determined experimentally): 6.1 µM
- inhibition at 22.2 µM ([3]; pH 8.1, read-out: Fractional Inhibition (Table I)): 68%
SMILES: C[C@]12CC[C@@H]3c4ccc(O)cc4CC[C@H]3[C@@H]1CC[C@@H]2O [1,3,5(10)Estratriene-3,17β-diol]
- added E2 found as free E1, normal estrous cycle [1]: 18.7±7.2%
- Percent of tritiated E2 sulfurylated, proliferative (human endometrium; Table IV, proliferative days 4-7, 55, 118, 329 mg tissue by row, 2 h, 3×10^-9 M E2): 0%
- Percent of tritiated E2 oxidized to estrone, proliferative (human endometrium; Table IV, proliferative days 4-7, 55, 118, 329 mg tissue by row, 2 h, 3×10^-9 M E2, listed as E2, 120 min): 47% and 45%
- metabolised at 2 h, 0.003 µM ([2]; proliferative days 4-7, 55, 118, 329 mg tissue by row, read-out: Percent of tritiated E2 oxidized to estrone, proliferative): 29%
